Columns and labels:
Chikungunya virus = test: Antiviral activity against Chikungunya virus Indian ocean strain 899 infected in African green monkey Vero A cells assessed as reduction in viral-induced cytopathic effect after 6 to 7 days by MTS/PMS assay; type: functional, organism-based; settings: Indian ocean strain 899, Vero
[1] = Selectivity index, ratio of CC50 for African green monkey Vero A cells to EC50 for Chikungunya virus Indian ocean strain 899 infected in African green monkey Vero A cells; type: toxicity; settings: read-out: Ratio CC50/EC50

Question: Which EC50 (Chikungunya virus) does the source give for `CCCCC/C=C\C=C\C(=O)O[C@@H]1[C@@H](C)[C@@]2(O)[C@@H](C=C(CO)C[C@]3(O)C(=O)C(C)=C[C@@H]23)[C@@H]2C(C)(C)[C@]12OC(=O)C(C)C` here?
Answer: < 0.8 µM

Question: And the selectivity ratio [1]?
Answer: > 12

Question: For `CCCCC/C=C\C=C\C(=O)O[C@@H]1[C@@H](C)[C@@]2(O)[C@@H](C=C(CO)C[C@]3(O)C(=O)C(C)=C[C@@H]23)[C@@H]2C(C)(C)[C@]12OC(=O)C(C)CC` (stereo partly drawn), which EC50 (Chikungunya virus) is on record?
Answer: < 0.8 µM

Question: What about the selectivity ratio [1] of the same molecule?
Answer: > 12

Question: For `CCCCC/C=C/C=C\C(=O)O[C@@H]1[C@@H](C)[C@@]2(O)[C@@H](C(=O)C(CO)=C[C@]3(O)C(=O)C(C)=C[C@@H]23)[C@@H]2C(C)(C)[C@]12OC(=O)C(C)C`, which EC50 (Chikungunya virus) is on record?
Answer: 4.5 µM

Question: What about the selectivity ratio [1] of the same molecule?
Answer: 6.3

Question: For `CCCCC/C=C/C=C\C(=O)O[C@@H]1[C@@H](C)[C@@]2(O)[C@@H](C=C(CO)C[C@]3(O)C(=O)C(C)=C[C@@H]23)[C@@H]2C(C)(C)[C@]12OC(=O)C(C)C`, which EC50 (Chikungunya virus) is on record?
Answer: < 0.8 µM

Question: And the selectivity ratio [1]?
Answer: > 12
